These results are taken from US7041687B2, “Indazole compounds useful as protein kinase inhibitors” (Vertex Pharmaceuticals Incorporated, priority 2002, dated 2006).

Several values for one entry are separate records, joined by “and”; a condition that tells them apart may be missing. Identical values can stand only once.

Usually Ki stands for the dissociation constant of the complex between target and ligand, obtained from inhibition or displacement.

What all share (assay type): biochemical
For experiment [1], the target named is PKA (Homo sapiens, UniProt P17612). Briefly: PKA inhibition assay (standard coupled enzyme assay). The following applies: 50 μM ATP, 80 μM Kemptide, 18 nM PKA, 30° C. Here is the method: Compounds were screened for their ability to inhibit PKA using a standard coupled enzyme assay (Fox et al., Protein Sci., (1998) 7, 2249). Assays were carried out in a mixture of 100 mM HEPES 7.5, 10 mM MgCl2, 25 mM NaCl, 1 mM DTT and 3% DMSO. Final substrate concentrations in the assay were 50 μM ATP (Sigma Chemicals) and 80 μM peptide (Kemptide, American Peptide, Sunnyvale, Calif.). Assays were carried out at 30° C. and 18 nM PKA. Final concentrations of the components of the coupled enzyme system were 2.5 mM phosphoenolpyruvate, 300 μM NADH, 30 μg/ml pyruvate kinase and 10 μg/ml lactate dehydrogenase.
An assay stock buffer solution was prepared containing all of the reagents listed above, with the exception of ATP, and the test compound of interest. 55 μl of the stock solution was placed in a 96 well plate followed by addition of 2 μl of DMSO stock containing serial dilutions of the test compound (typically starting from a final concentration of 5 μM). The plate was preincubated for 10 minutes at 30° C. and the reaction initiated by addition of 5 μl of ATP (final concentration 50 μM). Initial reaction rates were determined with a Molecular Devices SpectraMax Plus plate reader over a 15 minute time course. IC50 and Ki data were calculated from non-linear regression analysis using the Prism software package (GraphPad Prism version 3.0a for Macintosh, GraphPad Software, San Diego Calif., USA).

For experiment [2], the target named is T1, PDK-1 (Homo sapiens, UniProt O15530).
T1 sequence (O15530 1-556): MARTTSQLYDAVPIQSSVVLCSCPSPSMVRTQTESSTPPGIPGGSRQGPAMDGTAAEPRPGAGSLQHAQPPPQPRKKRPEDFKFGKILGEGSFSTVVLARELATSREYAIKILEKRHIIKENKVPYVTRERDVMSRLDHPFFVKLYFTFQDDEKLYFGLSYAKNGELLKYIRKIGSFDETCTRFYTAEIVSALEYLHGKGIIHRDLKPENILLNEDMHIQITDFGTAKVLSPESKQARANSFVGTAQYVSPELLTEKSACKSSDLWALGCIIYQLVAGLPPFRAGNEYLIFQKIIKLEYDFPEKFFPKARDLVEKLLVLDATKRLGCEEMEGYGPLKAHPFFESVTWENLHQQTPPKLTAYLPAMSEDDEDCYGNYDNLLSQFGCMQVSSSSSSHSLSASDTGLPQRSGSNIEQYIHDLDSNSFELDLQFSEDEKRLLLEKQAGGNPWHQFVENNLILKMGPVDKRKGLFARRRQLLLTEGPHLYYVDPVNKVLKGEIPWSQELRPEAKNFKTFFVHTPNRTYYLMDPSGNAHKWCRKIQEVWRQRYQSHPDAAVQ
Kind of experiment: PDK-1 inhibition assay (radioactive-phosphate incorporation). Conditions: 40 μM ATP, 65 μM PDKtide, 25 nM PDK-1, 30° C.

Experiment [3] has as its target AKT-3 (Homo sapiens, UniProt Q9Y243). Briefly: AKT-3 inhibition assay (standard coupled enzyme assay). The following applies: 170 μM ATP, 200 μM peptide, 45 nM AKT, 30° C.
Protocol: Assays were carried out in a mixture of 100 mM HEPES 7.5, 10 mM MgCl2, 25 mM NaCl, 1 mM DTT and 3% DMSO. Final substrate concentrations in the assay were 170 μM ATP (Sigma Chemicals) and 200 μM peptide (RPRAATF, American Peptide, Sunnyvale, Calif.). Assays were carried out at 30° C. and 45 nM AKT. Final concentrations of the components of the coupled enzyme system were 2.5 mM phosphoenolpyruvate, 300 μM NADH, 30 μg/ML pyruvate kinase and 10 μg/ml lactate dehydrogenase.
An assay stock buffer solution was prepared containing all of the reagents listed above, with the exception of AKT, DTT, and the test compound of interest. 55 μl of the stock solution was placed in a 96 well plate followed by addition of 2 μl of 1 mM DMSO stock containing the test compound (final compound concentration 30 μM). The plate was pre-incubated for about 10 minutes at 30° C. and the reaction initiated by addition of 10 μl of enzyme (final concentration 45 nM) and 1 mM DTF. Rates of reaction were obtained using a Molecular Devices SpectraMax Plus plate reader over a 15 minute read time at 30° C.

Chain of AKT-3 (Q9Y243 whole entry): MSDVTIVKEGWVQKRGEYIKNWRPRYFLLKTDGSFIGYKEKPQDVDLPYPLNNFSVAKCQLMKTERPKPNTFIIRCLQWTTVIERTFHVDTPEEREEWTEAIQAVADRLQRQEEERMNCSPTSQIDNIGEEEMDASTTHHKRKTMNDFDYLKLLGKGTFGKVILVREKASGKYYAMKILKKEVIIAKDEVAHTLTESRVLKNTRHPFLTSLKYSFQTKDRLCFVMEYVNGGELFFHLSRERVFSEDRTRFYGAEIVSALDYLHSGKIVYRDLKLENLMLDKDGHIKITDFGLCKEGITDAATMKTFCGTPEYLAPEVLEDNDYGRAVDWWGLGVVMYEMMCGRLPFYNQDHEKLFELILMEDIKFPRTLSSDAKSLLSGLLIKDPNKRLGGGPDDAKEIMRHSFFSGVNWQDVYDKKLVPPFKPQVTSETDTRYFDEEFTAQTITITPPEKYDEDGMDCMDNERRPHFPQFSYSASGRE

For the compound `Cc1cccc(C(CCN)C(=O)Nc2ccc3[nH]nc(C)c3c2)c1` (stereo not drawn) [Compound I-131], the Ki is less than 1000 nM in experiment [1], greater than 3000 nM in experiment [2] and less than 1000 nM in experiment [3].

As for `N#Cc1cccc(Nc2n[nH]c3ccc(NC(=O)C(CCN)c4ccc(Cl)c(Cl)c4)cc23)c1` (stereo not drawn) [Compound I-165], the Ki in experiment [1], in experiment [2] and in experiment [3] was less than 1000 nM throughout.

Consider `NCCC(C(=O)Nc1ccc2[nH]nc(NC(=O)c3cccc(CN)c3)c2c1)c1ccc(Cl)c(Cl)c1` (stereo not drawn) [Compound I-197], for which the Ki in experiment [1], in experiment [2] and in experiment [3] was less than 1000 nM each time.

Take `NCCC(C(=O)Nc1ccc2[nH]nc(NC(=O)c3cc(F)cc(C(F)(F)F)c3)c2c1)c1ccc(Cl)c(Cl)c1` (stereo not drawn) [Compound I-203]: the values for the inhibitory constant (Ki) in experiment [1], in experiment [2] and in experiment [3] were less than 1000 nM, greater than 3000 nM and less than 1000 nM, respectively.

Turning to `Cc1n[nH]c2ccc(NC(=O)[C@@H](CCN)c3cccc(Cl)c3F)cc12` [Compound I-126], the Ki in experiment [1], in experiment [2] and in experiment [3] was less than 1000 nM each time.

Turning to `CN(C)CC(C(=O)Nc1ccc2[nH]ncc2c1)c1ccc(Cl)c(Cl)c1` (stereo not drawn) [Compound I-227], the results for the Ki in experiment [1], in experiment [2] and in experiment [3] were less than 1000 nM, greater than 3000 nM and less than 1000 nM, respectively.

For the compound `NCC(C(=O)Nc1ccc2[nH]ncc2c1)c1ccc(Cl)c(Cl)c1` (stereo not drawn) [Compound I-99], the Ki is less than 1000 nM in experiment [1], greater than 3000 nM in experiment [2] and less than 1000 nM in experiment [3].

Regarding `N#Cc1cccc(Nc2n[nH]c3ccc(NC(=O)C(CN)c4ccc(Cl)c(Cl)c4)cc23)c1` (stereo not drawn) [Compound I-232], the Ki in experiment [1] was less than 1000 nM; in experiment [2], greater than 3000 nM; in experiment [3] it was less than 1000 nM.

Regarding `NCCC(C(=O)Nc1ccc2[nH]nc(NC(=O)c3cc(F)cc(F)c3)c2c1)c1ccc(Cl)c(Cl)c1` (stereo not drawn) [Compound I-201], the inhibitory constant (Ki) in experiment [1] was less than 1000 nM; in experiment [2] it was greater than 3000 nM; in experiment [3] it was less than 1000 nM.

`CNc1ccc(C(=O)Nc2n[nH]c3ccc(NC(=O)C(CCN)c4ccc(Cl)c(Cl)c4)cc23)cc1` (stereo not drawn) [Compound I-206]: the Ki in experiment [1], in experiment [2] and in experiment [3] was less than 1000 nM throughout.

Take `CCCc1ccc(C(=O)Nc2n[nH]c3ccc(NC(=O)C(CCN)c4ccc(Cl)c(Cl)c4)cc23)cc1` (stereo not drawn) [Compound I-188]: the values for the Ki in experiment [1], in experiment [2] and in experiment [3] were less than 1000 nM, 1000 to 3000 nM and less than 1000 nM, respectively.

With `NCCC(C(=O)Nc1ccc2[nH]ncc2c1)c1ccccc1` (stereo not drawn) [Compound I-98], the inhibition constant Ki in experiment [1] is less than 1000 nM; in experiment [2], 1000 to 3000 nM; in experiment [3], less than 1000 nM.

For `Cc1cc(NC(=O)C(CCN)c2ccc(Cl)c(Cl)c2)cc2cn[nH]c12` (stereo not drawn) [Compound I-147], the figures for the Ki in experiment [1], in experiment [2] and in experiment [3] were less than 1000 nM, 1000 to 3000 nM and less than 1000 nM, respectively.

For `NCCC(C(=O)Nc1ccc2[nH]nc(NC(=O)c3cccc(Cl)c3)c2c1)c1ccc(Cl)c(Cl)c1` (stereo not drawn) [Compound I-160], the Ki in experiment [1] is less than 1000 nM; in experiment [2] it was 1000 to 3000 nM; in experiment [3] it was less than 1000 nM.

For the compound `Cc1n[nH]c2ccc(NC(=O)C(CN)c3ccc(Cl)c(Cl)c3)cc12` (stereo not drawn) [Compound I-233], the Ki in experiment [1] was less than 1000 nM; in experiment [2], 1000 to 3000 nM and > 3000 nM; in experiment [3], less than 1000 nM.

`Cc1n[nH]c2ccc(NC(=O)C(CCN)c3ccc(Cl)c(Cl)c3F)cc12` (stereo not drawn) [Compound I-136]: the Ki in experiment [1], in experiment [2] and in experiment [3] was less than 1000 nM in each case.

For the compound `COc1c(C(CCN)C(=O)Nc2ccc3[nH]nc(C)c3c2)ccc(Cl)c1Cl` (stereo not drawn) [Compound I-130], the Ki in experiment [1], in experiment [2] and in experiment [3] was less than 1000 nM each time.

`NCCC(C(=O)Nc1cc(Br)c2[nH]nc(Cl)c2c1)c1ccc(Cl)c(Cl)c1` (stereo not drawn) [Compound I-145]: the figures for the Ki in experiment [1], in experiment [2] and in experiment [3] were less than 1000 nM, greater than 3000 nM and less than 1000 nM, respectively.

Turning to `NCCC(C(=O)Nc1ccc2[nH]nc(CCc3ccccc3)c2c1)c1ccc(Cl)c(Cl)c1` (stereo not drawn) [Compound I-123], the results for the Ki in experiment [1], in experiment [2] and in experiment [3] were less than 1000 nM, less than 1000 nM and 1000 to 10000 nM, respectively.

With `NCCC(C(=O)Nc1ccc2[nH]nc(NC(=O)c3ccccc3Cl)c2c1)c1ccc(Cl)c(Cl)c1` (stereo not drawn) [Compound I-180], the values for the Ki in experiment [1], in experiment [2] and in experiment [3] were less than 1000 nM, 1000 to 3000 nM and less than 1000 nM, respectively.

Regarding `Cc1n[nH]c2ccc(NC(=O)C(CCN)c3ccc(Cl)cc3F)cc12` (stereo not drawn) [Compound I-132], the Ki in experiment [1], in experiment [2] and in experiment [3] was less than 1000 nM each time.

In the case of `NCC[C@@H](C(=O)Nc1ccc2[nH]nc(NC(=O)c3cccc(Cl)c3)c2c1)c1cccc(Cl)c1F` [Compound I-177], the inhibition constant (Ki) in experiment [1] was less than 1000 nM; in experiment [2] it was 1000 to 3000 nM; in experiment [3] it was less than 1000 nM.

On to `O=C(Nc1ccc2[nH]ncc2c1)C1(c2ccccc2)CCNCC1` [Compound I-156], for which the inhibition constant (Ki) was less than 1000 nM in experiment [1], greater than 3000 nM in experiment [2] and 1000 to 10000 nM in experiment [3].

Turning to `NCCC(C(=O)Nc1ccc2[nH]ncc2c1)c1cccc(Cl)c1Cl` (stereo not drawn) [Compound I-106], the Ki in experiment [1], in experiment [2] and in experiment [3] was less than 1000 nM in each case.

`Cc1cccc(C(=O)Nc2n[nH]c3ccc(NC(=O)C(CCN)c4ccc(Cl)c(Cl)c4)cc23)c1` (stereo not drawn) [Compound I-185]: the Ki in experiment [1] was less than 1000 nM; in experiment [2], 1000 to 3000 nM; in experiment [3], less than 1000 nM.

In the case of `CNc1n[nH]c2ccc(NC(=O)C(CCN)c3ccc(Cl)c(Cl)c3)cc12` (stereo not drawn) [Compound I-134], the Ki in experiment [1] is less than 1000 nM; in experiment [2], greater than 3000 nM; in experiment [3], less than 1000 nM.

In the case of `NCCC(C(=O)Nc1ccc2[nH]nc(NC(=O)c3ccccc3)c2c1)c1ccc(Cl)c(Cl)c1` (stereo not drawn) [Compound I-141], the Ki in experiment [1], in experiment [2] and in experiment [3] was less than 1000 nM in each case.

With `NCCC(C(=O)Nc1ccc2[nH]nc(Cl)c2c1)c1ccc(Cl)c(Cl)c1` (stereo not drawn) [Compound I-121], the Ki in experiment [1], in experiment [2] and in experiment [3] was less than 1000 nM in each case.

Take `CCNc1ccc(C(=O)Nc2n[nH]c3ccc(NC(=O)C(CCN)c4ccc(Cl)c(Cl)c4)cc23)cc1` (stereo not drawn) [Compound I-207]: the Ki in experiment [1], in experiment [2] and in experiment [3] was less than 1000 nM in each case.

Regarding `NCCC(C(=O)Nc1ccc2[nH]nc(Nc3cccc(F)c3)c2c1)c1ccccc1` (stereo not drawn) [Compound I-1039], the Ki in experiment [1] is less than 1000 nM; in experiment [2], greater than 3000 nM; in experiment [3], 1000 to 10000 nM.

As to `NCCC(C(=O)Nc1ccc2[nH]ncc2c1)c1cccc(Cl)c1` (stereo not drawn) [Compound I-100], the Ki in experiment [1], in experiment [2] and in experiment [3] was less than 1000 nM in each case.

With `Cc1n[nH]c2ccc(NC(=O)[C@H](CCN)c3cccc(Cl)c3F)cc12` [Compound I-125], the Ki in experiment [1], in experiment [2] and in experiment [3] was less than 1000 nM in each case.

Regarding `CCOc1cccc(C(=O)Nc2n[nH]c3ccc(NC(=O)C(CCN)c4ccc(Cl)c(Cl)c4)cc23)c1` (stereo not drawn) [Compound I-181], the Ki in experiment [1], in experiment [2] and in experiment [3] was less than 1000 nM throughout.

For the compound `COC(=O)c1ccc(-c2n[nH]c3ccc(NC(=O)C(CCN)c4ccccc4)cc23)cc1` (stereo not drawn) [Compound I-235], the results for the Ki in experiment [1], in experiment [2] and in experiment [3] were less than 1000 nM, less than 1000 nM and 1000 to 10000 nM, respectively.

On to `NCCC(C(=O)Nc1ccc2[nH]nc(Nc3cccc(Cl)c3)c2c1)c1ccc(Cl)c(Cl)c1` (stereo not drawn) [Compound I-162], for which the Ki in experiment [1], in experiment [2] and in experiment [3] was less than 1000 nM each time.

As to `NCCC(C(=O)Nc1ccc2[nH]ncc2c1)c1cc(C(F)(F)F)cc(C(F)(F)F)c1` (stereo not drawn) [Compound I-105], the Ki in experiment [1] was less than 1000 nM; in experiment [2], greater than 3000 nM; in experiment [3], less than 1000 nM.

`CCc1cccc(C(CCN)C(=O)Nc2ccc3[nH]nc(C)c3c2)c1` (stereo not drawn) [Compound I-135]: the results for the inhibition constant (Ki) in experiment [1], in experiment [2] and in experiment [3] were less than 1000 nM, greater than 3000 nM and less than 1000 nM, respectively.
